Columns and labels:
hEPO expression [1] = experiment: Expression of hEPO in rats induced by nanoparticle compositions; assay type: in vivo, S.D. rats; details: rats, 3, 6 and 24 hours
Experimental: Formulations were administered intravenously, subcutaneously or intramuscularly to rats (n=3 or 6) at a dosage of 0.2 mg/kg or 0.5 mg/kg (mpk) and hEPO levels measured at 3, 6, and 24 hour time points. After the 48 hour time point, livers and spleens were harvested and frozen.
(§1) In contrast, hEPO expression in rats induced by administration of a nanoparticle composition including a compound according to one of formulae (I), (Ia1)-(Ia6), (Ib), (II), (IIa), (III), and (IIIa) was substantially […] than that measured for MC3. […] Tables 7c and 7d show additional protein expressions and clearance data from compositions with various compounds disclosed herein as compared to with MC3. Tables 7e, 7f and 7g show hEPO expression data in CD-1 mice at a dose of 0.5 mpk.

hEPO = hEPO expression in rats after i.v. administration of nanoparticle compositions (FIGS. 8A, 8B); assay type: in vivo, rat; details: rats, 2 mpk, i.v. administration (FIG. 8A)
Source text: PBS (phosphate buffered saline) is used as control. FIG. 8A compares the hEPO concentration after administration of nanoparticle compositions containing Compound 23, Compound 11, KL22, and MC3 at 2 mpk, i.v. administration. […] FIG. 8B illustrates the results of a dose response study using Compound 20, KL22, and MC3 at dose of 0.2, 0.5 and 1 mpk. […] In FIG. 8A, the numbers 1-5 refer to compositions containing the following: 1: Compound 23, 2: Compound 11, 3: KL22; 4: MC3; 5: PBS. In FIG. 8B, the numbers […] refer to compositions containing the following: 1: Compound 20, 0.2 mpk; 2: Compound 20, 0.5 mpk; 3: Compound 20, 1 mpk; 4: KL22, 0.2 mpk; 5: KL22, 0.5 mpk; 6: KL22, 1 mpk; 7: MC3, 0.2 mpk; 8: MC3, 0.5 mpk; 9: MC3, 1 mpk; 10: PBS.

rats = experiment: Tolerability / toxicity in rats (FIGS. 8A, 8B); assay type: in vivo
luciferase = experiment: Luciferase expression in LDLR −/− knockout and wild-type mice (FIG. 9A); assay type: in vivo, mouse; details: 0.05 mpk, 0.25 mpk and 0.5 mpk (FIG. 9A)
Source text: FIG. 9A is a bar graph showing expression of luciferase induced by administration of nanoparticle compositions including Compound 11 at dosages of 0.05 mpk, 0.25 mpk, and 0.5 mpk to LDLR −/− knockout and wild-type mice.

LDL-c = LDL-c levels in LDLR knockout mice after mRNA encoding the LDL receptor (FIG. 9B); assay type: in vivo, mouse; details: mRNAs encoding the LDL receptor, Compound 11 at 0.5 and 1 mpk (FIG. 9B)
[2] = Particle size and polydispersity index of nanoparticle compositions (Zetasizer Nano ZS); assay type: physicochemical
Experimental: A Zetasizer Nano ZS (Malvem Instruments Ltd, Malvem, Worcestershire, UK) can be used to determine the particle size, the polydispersity index (PDI) and the zeta potential of the nanoparticle compositions in 1×PBS in determining particle size and 15 mM PBS in determining zeta potential.

[3] = Encapsulation efficiency of RNA (QUANT-IT RIBOGREEN RNA assay); assay type: physicochemical
Procedure, shortened: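 Samples diluted to about 5 μg/mL RNA in TE buffer pH 7.5, treated with buffer or 2% Triton X-100 for 15 min at 37° C, then stained with RiboGreen (1:100). Fluorescence at about 480/520 nm, blank-subtracted; free RNA fraction is intact over Triton-disrupted signal.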

[4] = tested on: hepatocytes and Kupffer cells; experiment: Mouse liver immunohistochemistry (IHC) with GFP mRNA (FIGS. 11A, 11B); assay type: in vivo; details: CD-1 mouse liver, 6h after intravenous administration, 0.5 mpk (FIG. 11A)
Source text: FIGS. 11A and 11B are a pair of images comparing the results of a mouse liver immunohistochemistry (IHC) using mRNA expressing green fluorescent protein (GFP) after administration of nanoparticle compositions containing Compound 4 and MC3.

hEPO expression [5] = experiment: hEPO expression in CD-1 mice compared with MC3; assay type: in vivo
Procedure, shortened: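 Nanoparticle compositions containing the test compound were dosed to CD-1 mice at 0.5 mpk, and hEPO expression was measured. Clearance data were collected from the same compositions.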

[6] = Lipid clearance: % dose remaining in liver of CD-1 mice; assay type: in vivo; details: intravenous, 0.5 mg/kg, CD-1 mouse, Table 8a
Procedure, shortened: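 Nanoparticle compositions of the disclosed lipids given intravenously and benchmarked against MC3. Protein expression reported as AUC (p/s*h) and clearance as % dose remaining in liver of CD-1 mice; hEPO expression in CD-1 mice measured at 0.5 mpk.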

hEPO expression [7] = experiment: hEPO (miR126 + miR142) mRNA expression, Tables 8b-8e; assay type: in vivo
[8] = Lipid clearance: % dose remaining, Tables 7c and 8b-8e (species not given); assay type: in vivo
Source text: as §1

[9] = Purity at start and after storage for 65 h at 25 °C or 37 °C; assay type: physicochemical
Luc expression = Luc expression in CD-1 mice compared with MC3; assay type: in vivo; details: ratio to MC3, Table 7a
Source text: as §1

luciferase expression = experiment: Expression of Luc in different organs (liver, lung, spleen, femur), bioluminescence; assay type: in vivo; details: mice, intravenous, 0.5 mpk, 6 hours
Experimental: The efficacy of the nanoparticle compositions presented in Tables 1, la, 17-1, 19-1, 20-1 and 21-1 was further evaluated by measuring the expression of modified luciferase in the liver, lung, spleen, and femur upon administration of a given composition. Formulations were administered intravenously to mice (n=3) at a dosage of 0.5 mpk and bioluminescence measured after 6 hours. The standard MC3 formulation and a PBS control were also tested.

[10] = Table 1e, row marked #: Formulated with lipid:Chol:PEG 1 50:47.5:2.5
[11] = Table 1f, row marked #: Formulated with lipid:Chol:PEG 1 50:47.5:2.5
[12] = Table 1d, row marked #: Formulated with lipid:Chol:PEG 1 50:47.5:2.5
[13] = Table 1f, Formulated with lipid:Chol:DOPE:PEG 1 40:38.5:20:1.5
[14] = Table 1d, Formulated with lipid:Chol:DOPE:PEG 1 40:38.5:20:1.5

CCCCCCCCCCCCN(CCCCCCCCCCCC)CCN(CCCCCCCCCCCC)CCN1CCN(CCN(CCCCCCCCCCCC(=O)OC)CCCCCCCCCCCC(=O)OC)CC1 [Compound 16, Dimethyl 12,12′-((2-(4-(2-((2-(didodecylamino)ethyl)(dodecyl)amino)ethyl)piperazin-1-yl)ethyl)azanediyl)didodecanoate]
hEPO expression at each time point, rank among compositions of Table 6 (hEPO expression [1]): lowest hEPO expression

CCCCCCCCCCCCN(CCCCCCCCCCCC)CCN(CCCCCCCCCCCC)CC(=O)N1CCN(C(=O)CN(CCCCCCCCCCCC)CCCCCCCCCCCC)CC1 [Compound 11, 2-(Didodecylamino)-1-(4-(N-(2-(didodecylamino)ethyl)-N-dodecylglycyl)piperazin-1-yl)ethan-1-one]
hEPO concentration after administration of nanoparticle compositions (hEPO): comparable to MC3
tolerability (rats; 2 mpk, i.v. (FIG. 8A), compared to KL22): improved tolerability as compared to KL22
LDLr dependence of luciferase expression (luciferase): LDLr independent lipid
LDL-c levels (LDL-c): found to drop

CCCCCC=CCC=CCCCCCCCCC(CCCCCCCCC=CCC=CCCCCC)OC(=O)CCCN(C)C (stereo not shown) [MC3, heptatriaconta-6,9,28,31-tetraen-19-yl 4-(dimethylamino)butanoate, reference compound]
PDI [2, 10]: 0.22
Size (nm) [2, 10]: 109.0 nm
PDI [2, 11]: 0.26
Size (nm) [2, 11]: 129.7 nm
PDI [2, 12]: 0.20
Size (nm) [2, 12]: 105.0 nm
EE (%) [3, 10]: 93.0%
EE (%) [3, 11]: 92.5%
EE (%) [3, 12]: 84.1%
GFP protein expression in liver cell types (IHC) [4]: observed in both hepatocytes and Kupffer cells
hEPO expression at each time point, rank among compositions of Table 6 (hEPO expression [1]): highest hEPO expression
AUC (p/s*h) CD-1 mice 0.5 mpk (hEPO expression [5]; intramuscular, title: 0.01 mg/kg, Table 7f): 27727 p/s*h
AUC (p/s*h) CD-1 mice 0.5 mpk (hEPO expression [5]; subcutaneous, 0.5 mg/kg, Table 7g): 375994 p/s*h
% Dose Remaining 24 hr [6]: 64.65%
AUC (hEPO expression [7]; Table 8c): 1.52e+07 pg·h/mL
AUC (hEPO expression [7]; Table 8d): 6.95e+08 pg·h/mL
AUC (mIU/mL*h) (hEPO expression [7]; lipid:Chol:PEG 1 50:47.5:2.5, Table 8e): 2.24E+07 mIU/mL*h
% Dose Remaining (liver, 24 h) ([8]; Table 8c): 58.41%
% Dose Remaining (liver, 24 h) ([8]; Table 8d): 54.04%

CCCCCCCCCN(CCCCCCCCC)CCN(CCCCCCCCC)CC(=O)N1CCN(C(=O)CN(CCCCCCCCC)CCCCCCCC(=O)OC)CC1 [Compound 44, Methyl 8-((2-(4-(N-(2-(dinonylamino)ethyl)-N-nonylglycyl)piperazin-1-yl)-2-oxoethyl)(nonyl)amino)octanoate]
Purity % 25° C. no shaking t = 65 h ([9]; after storage for 65 h at 25° C., no shaking): 92%
Purity % 37° C. shaking t = 65 h ([9]; after storage for 65 h at 37° C., shaking): 91%
Purity % t = 0 h ([9]; beginning of the study, 25° C.): 90%

CCCCCCCCCCCCN(CCCCCCCCCCCC)CCN(CCCCCCCCCCCC)CCN1CCN(CCN(CCCCCCCCC)CCCCCCCCC)CC1 [Compound 23, N^1-(2-(4-(2-(Dinonylamino)ethyl)piperazin-1-yl)ethyl)-N^1,N^2,N^2-tridodecylethane-1,2-diamine]
toxicity (rats; 2 mg/kg dose): toxic
Lipid/MC3 Luc CD-1 (mice) (Luc expression): several fold higher

CCCCCCCCCCCCCCN(CCCCCCCCCCCCCC)CCN1CCN(CCN(CCCCCCCCC)CCN(CCCCCCCCC)CCCCCCCCC)CC1 [Compound 20, N^1-(2-(4-(2-(Ditetradecylamino)ethyl)piperazin-1-yl)ethyl)-N^1,N^2,N^2-trinonylethane-1,2-diamine]
total flux, rank among the compositions of Table 3 (luciferase expression): highest total flux

CCCCCCCCCOC(=O)CCCCCCCN(CCCCCCCC(=O)OC(CCCCCCCC)CCCCCCCC)CCCCC(=O)OCCOC(=O)CCCCN(CCCCCCCC(=O)OCCCCCCCCC)CCCCCCCC(=O)OC(CCCCCCCC)CCCCCCCC [Compound 185, Di(heptadecan-9-yl) 8,8′-(11,24,29,42-tetraoxo-10,25,28,43-tetraoxa-19,34-diazadopentacontane-19,34-diyl)dioctanoate]
PDI [2, 13]: 0.27
Size (nm) [2, 13]: 98.4 nm
EE (%) [3, 13]: 98.6%
AUC (hEPO expression [7]; Table 8d): 2.23e+07 pg·h/mL
% Dose Remaining (liver, 24 h) ([8]; Table 8d): 18.21%

CCCCCCCCCN(CCCCCCCCC)CCN(CCCCCCCCC)CC(=O)N(C)CCCN(C)C(=O)CN(CCCCCCCCC)CCCCCCCCC [Compound 155, 2-(dinonylamino)-N-(3-(2-((2-(dinonylamino)ethyl)(nonyl)amino)-N-methylacetamido)propyl)-N-methylacetamide]
PDI [2, 14]: 0.22
Size (nm) [2, 14]: 84.4 nm
EE (%) [3, 14]: 98.4%
AUC (hEPO expression [7]; Table 8b): 8.89e+07 pg·h/mL
% Dose Remaining (liver, 24 h) ([8]; Table 8b): 78.61%

From patent US12077501B2, “Compounds and compositions for intracellular delivery of agents” (ModernaTX, Inc., priority 2017, dated 2024)
